Experimental data as given in PMC6941823, “A dispensable paralog of succinate dehydrogenase subunit C mediates standing resistance towards a subclass of SDHI fungicides in Zymoseptoria tritici” (PLoS Pathogens, 2019).
Read-outs that look alike come from different tables or passages of the source.

Columns and labels:
[1] = molecular target: WT-SQR (SDHC), IPO323 mitochondria (Zymoseptoria tritici, UniProt F9X9V6+F9XH52+O42772); test: Succinate-quinone (SQR) SDHI sensitivity assay on purified mitochondria, IPO323; type: biochemical
WT-SQR (SDHC), IPO323 mitochondria, sequence (F9WWR1 entry or part of it): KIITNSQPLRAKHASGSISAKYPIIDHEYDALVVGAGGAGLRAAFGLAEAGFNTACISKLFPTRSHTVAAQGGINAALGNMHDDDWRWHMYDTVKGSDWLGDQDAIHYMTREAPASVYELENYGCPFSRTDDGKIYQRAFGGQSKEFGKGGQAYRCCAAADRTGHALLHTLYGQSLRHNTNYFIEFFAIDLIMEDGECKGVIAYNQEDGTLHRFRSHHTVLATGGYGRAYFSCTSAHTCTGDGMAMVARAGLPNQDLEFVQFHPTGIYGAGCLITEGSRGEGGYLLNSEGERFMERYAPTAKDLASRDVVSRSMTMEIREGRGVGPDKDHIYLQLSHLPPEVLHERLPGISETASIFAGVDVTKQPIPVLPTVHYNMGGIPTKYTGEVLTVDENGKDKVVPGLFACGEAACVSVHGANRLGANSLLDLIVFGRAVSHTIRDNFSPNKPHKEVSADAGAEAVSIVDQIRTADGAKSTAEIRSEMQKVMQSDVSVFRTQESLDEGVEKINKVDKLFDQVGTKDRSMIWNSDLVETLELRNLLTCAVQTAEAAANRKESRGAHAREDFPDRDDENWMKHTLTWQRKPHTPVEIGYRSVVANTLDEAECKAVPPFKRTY
WT-SQR (SDHC), IPO323 mitochondria, sequence (F9X9V6 entry or part of it): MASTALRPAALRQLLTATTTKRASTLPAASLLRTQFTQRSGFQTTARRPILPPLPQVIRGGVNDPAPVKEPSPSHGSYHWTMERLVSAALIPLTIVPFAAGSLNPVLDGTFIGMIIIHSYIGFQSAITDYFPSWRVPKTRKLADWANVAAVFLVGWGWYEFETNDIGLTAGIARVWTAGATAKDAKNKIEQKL
WT-SQR (SDHC), IPO323 mitochondria, sequence (O42772 19-297): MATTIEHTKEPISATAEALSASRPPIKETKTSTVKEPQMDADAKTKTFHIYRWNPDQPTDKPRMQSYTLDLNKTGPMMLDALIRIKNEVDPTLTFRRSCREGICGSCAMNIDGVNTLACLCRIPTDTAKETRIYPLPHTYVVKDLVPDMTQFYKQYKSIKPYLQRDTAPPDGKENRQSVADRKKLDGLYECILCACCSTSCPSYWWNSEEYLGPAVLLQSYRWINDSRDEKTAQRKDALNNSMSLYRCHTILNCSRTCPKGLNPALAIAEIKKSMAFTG
WT-SQR (SDHC), IPO323 mitochondria, sequence (F9XH52 entry or part of it): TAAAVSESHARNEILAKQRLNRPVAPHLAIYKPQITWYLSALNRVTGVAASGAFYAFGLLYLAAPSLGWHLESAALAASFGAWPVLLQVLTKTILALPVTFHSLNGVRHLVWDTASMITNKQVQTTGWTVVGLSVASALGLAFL
Protocol: (§1) Succinate-ubiquinone oxidoreductase (SQR) inhibition assays were performed on mitochondrial extracts from a panel of strains that were (i) either carrying a unique C-subunit encoding gene (ZtSDHC1, ZtSDHC1_A84I or Zt-SDHC3), or (ii) carrying two C-subunit encoding genes ZtSDHC1 and ZtSDHC3 (Table 1).
(§2) Biomass production, mitochondrial extraction and purification were performed as described in [14]. Succinate: ubiquinone/DCPIP sensitivity tests were performed as described in [14] with minor modification. The different mitochondrial suspensions were adjusted to similar initial velocity (1 OD595nm hour^-1) and inhibitor concentrations ranged between 0.047nM and 50μM with uniform 4x dilution steps (11 concentrations + DMSO control). Calculated absorbance slopes (OD/min) were used for IC50 calculations using GraphPad Prism 6.07 software non-linear curve fitting against log inhibitor concentrations.

[2] = molecular target: SQR of 06STD024 (SDHC / altC) mitochondria (Zymoseptoria tritici, UniProt A0A1X7RQW2+F9X9V6+F9XH52+O42772); test: Succinate-quinone (SQR) SDHI sensitivity assay on purified mitochondria, 06STD024; type: biochemical; conditions: for RF (resistance factor), 06STD024 (SDHC / altC): IC50 ratio compared to IPO323 values; for IC50: mitochondria of field isolate 06STD024, mean of three ± SD
Protocol: as §1
(§3) Biomass production, mitochondrial extraction and purification were performed as described in [14]. Succinate: ubiquinone/DCPIP sensitivity tests were performed as described in [14] with minor modification.

[3] = molecular target: SQR (SDHC) of D024 SDHC3 KO mitochondria (Zymoseptoria tritici, UniProt F9X9V6+F9XH52+O42772); test: Succinate-quinone (SQR) SDHI sensitivity assay on purified mitochondria, 06STD024 SDHC3 KO; type: biochemical; conditions: for RF (resistance factor), D024 SDHC3 KO (SDHC): IC50 ratio compared to IPO323 values; for IC50: mitochondria of 06STD024 ZtSDHC3 deletion mutant, mean of three ± SD
SQR (SDHC) of D024 SDHC3 KO mitochondria, sequence (F9XH52 44-187): as the sequence (F9XH52 entry or part of it) above
SQR (SDHC) of D024 SDHC3 KO mitochondria, sequence (O42772 19-297): as the sequence (O42772 19-297) above
SQR (SDHC) of D024 SDHC3 KO mitochondria, sequence (F9X9V6 1-193): as the sequence (F9X9V6 entry or part of it) above
SQR (SDHC) of D024 SDHC3 KO mitochondria, sequence (F9WWR1 29-643 partner): as the sequence (F9WWR1 entry or part of it) above
Protocol: as §1, §2

[4] = molecular target: altC-SQR (altC) of D024 SDHC1 KO mitochondria (Zymoseptoria tritici, UniProt A0A1X7RQW2+F9X9V6+O42772); test: Succinate-quinone (SQR) SDHI sensitivity assay on purified mitochondria, 06STD024 SDHC1 KO; type: biochemical; conditions: for RF (resistance factor), D024 SDHC1 KO (altC): IC50 ratio compared to IPO323 values; for IC50: mitochondria of 06STD024 ZtSDHC1 deletion mutant (pure altC-SQR), mean of three ± SD
Protocol: as §1, §3

[5] = system: SQR (SDHC / altC) of IPO323 pTet::SDHC3 transformant, induced; test: Succinate-quinone (SQR) SDHI sensitivity assay on purified mitochondria, IPO323 pTet::SDHC3 induced; type: biochemical, Zymoseptoria tritici; conditions: IPO323 pTet::SDHC3 transformant grown in the absence of doxycycline; mean of three ± SD
Protocol: as §1, §3

[6] = molecular target: SQR (SDHC / altC) of IPO323 pTet::SDHC3 transformant, repressed (Zymoseptoria tritici, UniProt A0A1X7RQW2+F9X9V6+F9XH52+O42772); test: Succinate-quinone (SQR) SDHI sensitivity assay on purified mitochondria, IPO323 pTet::SDHC3 repressed; type: biochemical; conditions: for RF (resistance factor), pTet Repressed (SDHC / altC): IC50 ratio compared to IPO323 values; for IC50: IPO323 pTet::SDHC3 transformant grown in presence of 30 mg.L^-1 doxycycline, mean of three ± SD
SQR (SDHC / altC) of IPO323 pTet::SDHC3 transformant, repressed, sequence (F9XH52 44-187): as the sequence (F9XH52 entry or part of it) above
SQR (SDHC / altC) of IPO323 pTet::SDHC3 transformant, repressed, sequence (O42772 20-297): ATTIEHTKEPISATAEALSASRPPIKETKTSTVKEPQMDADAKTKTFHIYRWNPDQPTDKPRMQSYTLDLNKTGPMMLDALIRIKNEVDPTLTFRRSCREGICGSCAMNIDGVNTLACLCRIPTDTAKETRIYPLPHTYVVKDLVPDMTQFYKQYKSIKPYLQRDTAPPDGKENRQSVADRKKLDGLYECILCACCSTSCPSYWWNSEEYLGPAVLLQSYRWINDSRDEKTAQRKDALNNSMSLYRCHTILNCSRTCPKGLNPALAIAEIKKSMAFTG
SQR (SDHC / altC) of IPO323 pTet::SDHC3 transformant, repressed, sequence (F9X9V6 1-193): as the sequence (F9X9V6 entry or part of it) above
SQR (SDHC / altC) of IPO323 pTet::SDHC3 transformant, repressed, sequence (A0A1X7RQW2 36-181): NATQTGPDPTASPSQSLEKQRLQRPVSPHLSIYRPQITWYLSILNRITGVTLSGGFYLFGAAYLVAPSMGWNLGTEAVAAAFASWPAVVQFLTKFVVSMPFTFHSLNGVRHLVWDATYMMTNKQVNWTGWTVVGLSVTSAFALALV
SQR (SDHC / altC) of IPO323 pTet::SDHC3 transformant, repressed, sequence (F9WWR1 41-643 partner): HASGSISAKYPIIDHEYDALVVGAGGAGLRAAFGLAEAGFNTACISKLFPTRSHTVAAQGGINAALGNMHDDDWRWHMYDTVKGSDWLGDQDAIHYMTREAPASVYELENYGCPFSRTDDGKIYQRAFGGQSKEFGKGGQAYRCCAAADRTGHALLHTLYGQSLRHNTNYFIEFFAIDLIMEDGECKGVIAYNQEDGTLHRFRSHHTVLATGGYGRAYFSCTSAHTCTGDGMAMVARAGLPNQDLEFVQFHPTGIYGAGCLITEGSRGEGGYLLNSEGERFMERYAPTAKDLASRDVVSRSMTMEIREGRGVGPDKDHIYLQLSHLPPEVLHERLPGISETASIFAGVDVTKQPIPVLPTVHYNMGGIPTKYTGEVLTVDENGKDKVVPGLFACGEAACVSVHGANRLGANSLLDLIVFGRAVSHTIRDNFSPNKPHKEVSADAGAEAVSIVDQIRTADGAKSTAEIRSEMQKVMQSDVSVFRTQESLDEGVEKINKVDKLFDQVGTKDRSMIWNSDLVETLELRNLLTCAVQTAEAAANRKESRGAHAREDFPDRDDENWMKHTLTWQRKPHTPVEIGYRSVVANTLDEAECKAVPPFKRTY
Protocol: as §1, §3

[7] = system: Zymoseptoria tritici field and genetically modified strains; test: Liquid culture assay for fungicide sensitivity determination; type: cell-based; conditions: Zymoseptoria tritici, liquid culture sensitivity
Protocol: Sensitivity towards commercial fungicides was determined for a set of 99 SHA-SDHI-naïve Z. tritici field isolates sampled in Europe between 2006 and 2009. The EC50 of these isolates was determined in liquid growth assays and the data obtained compared for each possible pair of SDHI fungicides (cross-resistance (XR) plots, Fig 1). […] Comparative succinate-quinone reductase (SQR) enzyme inhibition tests were performed with mitochondria extracted from a panel of SHA-SDHIs tolerant and sensitive isolates.
In order to characterize in more depth the mechanisms driving sensitivity differences across the isolates, a subset of eight isolates carrying the ZtSDHC3 gene was analyzed for their sensitivity to SDHIs, alt-SDHC expression and splicing patterns. Liquid culture growth sensitivity tests were performed to determine EC50s for this set of isolates towards a wide range of commercial and research SDHIs (S5 Table).
Pre-culture of the inoculum and fungicide sensitivity tests were performed following previously described procedures. Different ranges of inhibitor concentrations were used for population monitoring and for the detailed phenotyping of a selected set of individual field isolates and genetically modified strains. For fungicide sensitivity monitoring of European field populations, final inhibitors concentrations were between 100 mg.L^-1 and 0.0001 mg.L^-1 with uniform 10x dilution steps (7 inhibitor concentrations + DMSO control). For refined sensitivity analysis of a smaller panel of isolates final inhibitor concentrations ranged between 0.5 mM and 0.47 nM with uniform 4x dilution factor steps (11 inhibitor concentrations+ DMSO control).

[8] = read-out: EC50 (nM) Mean, strain 06STD024
[9] = read-out: EC50 (nM) Mean, strain 07STGB009
[10] = read-out: EC50 (nM) Mean, strain 09STD041
[11] = read-out: EC50 (nM) Mean, strain 09STD053
[12] = read-out: EC50 (nM) Mean, strain 09STF011
[13] = read-out: EC50 (nM) Mean, strain 09STF037
[14] = read-out: EC50 (nM) Mean, strain 09STF112
[15] = read-out: EC50 (nM) Mean, strain 09STIR20.3
[16] = read-out: EC50 (nM) Mean, strain Flu21 (SDHC1_A84I)
[17] = read-out: EC50 (nM) Mean, strain IPO323
[18] = read-out: EC50 (nM) Mean, strain IPO94269
[19] = read-out: EC50 (nM) Mean, strain KO_SDHC1_T1
[20] = read-out: EC50 (nM) Mean, strain KO_SDHC1_T3
[21] = read-out: EC50 (nM) Mean, strain KO_SDHC3_T4
[22] = read-out: EC50 (nM) Mean, strain KO_SDHC3_T13
[23] = read-out: EC50 (nM) Mean, strain pTet::SDHC3_I78A_T1
[24] = read-out: EC50 (nM) Mean, strain pTet::SDHC3_I78A_T5
[25] = read-out: EC50 (nM) Mean, strain pTet::SDHC3_I78A_T15
[26] = read-out: EC50 (nM) Mean, strain pTet::SDHC3_I78A_T35
[27] = read-out: EC50 (nM) Mean, strain pTet::SDHC3_T1
[28] = read-out: EC50 (nM) Mean, strain pTet::SDHC3_T2
[29] = read-out: EC50 (nM) Mean, strain pTet::SDHC3_T3
[30] = read-out: EC50 (nM) Mean, strain pTet::SDHC3_T7

Structure (SMILES)	IC50 [1] [µM]	IC50 [2] [µM]	RF (resistance factor), D024 SDHC3 KO (SDHC) [3]	IC50 [3] [µM]	IC50 [4] [µM]	IC50 [5] [µM]	IC50 [6] [µM]	EC50 [7, 8] [nM]	EC50 [7, 9] [nM]	EC50 [7, 10] [nM]	EC50 [7, 11] [nM]	EC50 [7, 12] [nM]	EC50 [7, 13] [nM]	EC50 [7, 14] [nM]	EC50 [7, 15] [nM]	EC50 [7, 16] [nM]	EC50 [7, 17] [nM]	EC50 [7, 18] [nM]	EC50 [7, 19] [nM]	EC50 [7, 20] [nM]	further results
O=C(Nc1ccccc1-c1ccc(Cl)cc1)c1cccnc1Cl [Boscalid]	0.017 ± 0.0037	0.0619 ± 0.016	1.0	0.0164 ± 0.0024	0.0544 ± 0.0129	0.0403 ± 0.0027	0.0298 ± 0.004	1180	514	644	512	581	591	720	798	3020	384	853	2160	2050	RF (resistance factor), 06STD024 (SDHC / altC) [2]: 3.6; RF (resistance factor), D024 SDHC1 KO (altC) [4]: 3.2; RF (resistance factor), pTet Repressed (SDHC / altC) [6]: 1.8; EC50 [7, 21]: 637 nM; EC50 [7, 22]: 681 nM; EC50 [7, 23]: 776 nM; EC50 [7, 24]: 1680 nM; EC50 [7, 25]: 768 nM; EC50 [7, 26]: 270 nM; EC50 [7, 27]: 1300 nM; EC50 [7, 28]: 1420 nM; EC50 [7, 29]: 1450 nM; EC50 [7, 30]: 1460 nM
CC1=C(C(=O)Nc2ccccc2)SCCO1 [Carboxin]	0.969 ± 0.182	0.731 ± 0.0844	0.8	0.775 ± 0.0945	0.865 ± 0.215	0.763 ± 0.164	1.2 ± 0.085	4620	6340	13200	9370	9620	6840	6780	13200	10200	8550	10800	10400	11200	RF (resistance factor), 06STD024 (SDHC / altC) [2]: 0.8; RF (resistance factor), D024 SDHC1 KO (altC) [4]: 0.9; RF (resistance factor), pTet Repressed (SDHC / altC) [6]: 1.2; EC50 [7, 21]: 20600 nM; EC50 [7, 22]: 19600 nM; EC50 [7, 23]: 7520 nM; EC50 [7, 24]: 12700 nM; EC50 [7, 25]: 8080 nM; EC50 [7, 26]: 15700 nM; EC50 [7, 27]: 6980 nM; EC50 [7, 28]: 7420 nM; EC50 [7, 29]: 6930 nM; EC50 [7, 30]: 8460 nM
C[C@@H](Cc1ccc(Cl)cc1Cl)NC(=O)c1cn(C)nc1C(F)F [Compound 2]	0.0053 ± 0.0006	0.415 ± 0.068	0.7	0.0037 ± 0.0005	0.358 ± 0.0634	0.204 ± 0.0207	0.0156 ± 0.0039	2320	4000	702	367	606	178	786	259	5450	96.4	161	10400	8310	EC50 [7, 21]: 299 nM; EC50 [7, 22]: 309 nM; EC50 [7, 23]: 168 nM; EC50 [7, 24]: 332 nM; EC50 [7, 25]: 150 nM; EC50 [7, 26]: 100 nM; EC50 [7, 27]: 6140 nM; EC50 [7, 28]: 5160 nM; EC50 [7, 29]: 5660 nM; EC50 [7, 30]: 7400 nM
